Each structure is given as a SMILES string.

A short description of this data set: HILIC, Waters ACQUITY UPLC BEH Amide, 100 × 2.1 mm, 1.7 µm; A: water + 0.125% formic acid + 10 mM ammonium formate; B: 5% water + 95% acetonitrile + 0.125% formic acid + 10 mM ammonium formate; gradient (min/%B) 0/100 2/100 7.7/70 9.5/40 10.25/30 12.75/100 17/100. The settings on record: stereoisomer not certain.
On to `CCCCCCCCCCCCCCCCCC(=O)OC(CC(=O)O)C[N+](C)(C)C` [Stearoyl-L-carnitine], for which the LC retention time is 2.96 min.
In the case of `C=Cc1ccccc1` [Styrene] it was 8.74 min; in that of `O=C(O)CCC(=O)O` [Succinic acid], 4.46 min.
In the case of `OCC1OC(OC2(CO)OC(CO)C(O)C2O)C(O)C(O)C1O` (stereo unspecified) [Sucrose] it was 8.05 min.
In the case of `O=C(O)c1cc(N=Nc2ccc(S(=O)(=O)Nc3ccccn3)cc2)ccc1O` [Sulfasalazine] it was 2.01 min.
As for `CS(=O)CCCCN=C=S` (stereo unspecified) [Sulforaphane], the LC retention time was 1.14 min.
In the case of `CNS(=O)(=O)Cc1ccc2[nH]cc(CCN(C)C)c2c1` [Sumatriptan] it was 4.31 min; in that of `CNCC(O)c1ccc(O)cc1` (stereo unspecified) [Synephrine], 5.67 min; in that of `COc1cc(-c2oc3cc(O)cc(O)c3c(=O)c2OC2OC(CO)C(O)C(O)C2O)cc(OC)c1O` (stereo unspecified) [Syringetin-3-O-glucoside], 4.32 min.
Take `COc1cc(C(=O)O)cc(OC)c1O` [Syringic acid]: the LC retention time turned out to be 1.35 min.
In the case of `O=S(=O)(O)CCNC(CO)(CO)CO` [TES] it was 7.7 min; in that of `Nc1c2c(nc3ccccc13)CCCC2` [Tacrine], 3.86 min.
In the case of `C=CCC1C=C(C)CC(C)CC(OC)C2OC(O)(C(=O)C(=O)N3CCCCC3C(=O)OC(C(C)=CC3CCC(O)C(OC)C3)C(C)C(O)CC1=O)C(C)CC2OC` (stereo unspecified) [Tacrolimus] it was 1.07 min; in that of `CN1CC(=O)N2C(Cc3c([nH]c4ccccc34)C2c2ccc3c(c2)OCO3)C1=O` (stereo unspecified) [Taldalafil], 1.19 min; in that of `CN=C(N)NCCCC(N)C(=O)O` (stereo unspecified) [Targinine], 9.22 min.
In the case of `NCCS(=O)(=O)O` [Taurine] it was 7.85 min; in that of `CC(CCC(=O)NCCS(=O)(=O)O)C1CCC2C3C(O)CC4CC(O)CCC4(C)C3CC(O)C12C` (stereo unspecified) [Taurocholic acid], 6.12 min; in that of `O=C1c2c(O)cc(O)cc2OC(c2ccc(O)c(O)c2)C1O` (stereo unspecified) [Taxifolin], 1.78 min.
On to `O=c1[nH]c(=O)n(C2CCCO2)cc1F` (stereo unspecified) [Tegafur], for which the LC retention time came out at 1.22 min.
In the case of `CCCCCN=C(N)NN=Cc1c[nH]c2ccc(OC)cc12` [Tegaserod], the LC retention time turned out to be 2.84 min.
In the case of `CCCc1nc2c(C)cc(-c3nc4ccccc4n3C)cc2n1Cc1ccc(-c2ccccc2C(=O)O)cc1` [Telmisartan] it was 1.25 min; in that of `CN1C(=O)C(O)N=C(c2ccccc2)c2cc(Cl)ccc21` (stereo unspecified) [Temazepam], 1.15 min.
In the case of `Cn1nnc2c(C(N)=O)ncn2c1=O` [Temozolomide] it was 1.33 min; in that of `COc1cc2nc(N3CCN(C(=O)C4CCCO4)CC3)nc(N)c2cc1OC` (stereo unspecified) [Terazosin], 4.66 min.
In the case of `CN(CC=CC#CC(C)(C)C)Cc1cccc2ccccc12` [Terbinafine] it was 1.33 min; in that of `CC12CCC(=O)C=C1CCC1C2CCC2(C)C(O)CCC12` (stereo unspecified) [Testosterone], 1.05 min; in that of `CCNC(=O)CCC(N)C(=O)O` (stereo unspecified) [Theanine], 7.66 min.
For `Cn1c(=O)c2[nH]cnc2n(C)c1=O` [Theophylline], the LC retention time is 1.54 min.
As for `O=C(O)C1CSCN1` (stereo unspecified) [Thiazolidine-4-carboxylic acid], the LC retention time was 6.92 min.
For `N=c1ccc2nc3ccc(N)cc3sc-2c1` [Thionin], the LC retention time amounted to 5.23 min.
In the case of `OCC(O)C(O)CO` (stereo unspecified) [Threitol] it was 1.56 min; in that of `Cc1cn(C2CC(O)C(CO)O2)c(=O)[nH]c1=O` (stereo unspecified) [Thymidine], 2.57 min; in that of `Cc1cn(C2CC(O)C(COP(=O)(O)O)O2)c(=O)[nH]c1=O` (stereo unspecified) [Thymidine 5'-monophosphate], 8.28 min.
In the case of `Cc1ccc(C(C)C)c(O)c1` [Thymol] it was 1.53 min; in that of `Cc1ccsc1C(=CCCN1CCCC(C(=O)O)C1)c1sccc1C` (stereo unspecified) [Tiagabine], 3.94 min.
In the case of `C#CC1(O)CCC2C3C(C)CC4=C(CCC(=O)C4)C3CCC21C` (stereo unspecified) [Tibolone] it was 1 min.
`Clc1ccccc1CN1CCc2sccc2C1` [Ticlopidine]: the LC retention time stood at 1.12 min.
In the case of `CCS(=O)(=O)CCn1c([N+](=O)[O-])cnc1C` [Tinidazole] it was 1.04 min; in that of `Cc1cccc(C)c1NC(=O)C(C)N` (stereo unspecified) [Tocainide], 4.97 min; in that of `Cc1ccc(O)c(C(CCN(C(C)C)C(C)C)c2ccccc2)c1` (stereo unspecified) [Tolterodine], 2.13 min.
In the case of `CCCc1c(OCCCCc2nn[nH]n2)ccc(C(C)=O)c1O` [Tomelukast] it was 1.04 min.
In the case of `CC1(C)OC2COC3(COS(N)(=O)=O)OC(C)(C)OC3C2O1` (stereo unspecified) [Topiramate], the LC retention time was determined as 1.1 min.
Turning to `CCC1(O)C(=O)OCc2c1cc1n(c2=O)Cc2cc3c(CN(C)C)c(O)ccc3nc2-1` (stereo unspecified) [Topotecan], the LC retention time was determined as 5.72 min.
In the case of `O=C(c1ccccc1)c1ccc2n1CCC2C(=O)O` (stereo unspecified) [Toradol] it was 1.29 min; in that of `Cc1cccc(Nc2ccncc2S(=O)(=O)NC(=O)NC(C)C)c1` [Torasemide], 1.45 min; in that of `CN(C)CCOc1ccc(C(=C(CCCl)c2ccccc2)c2ccccc2)cc1` [Toremifene], 1.89 min.
In the case of `NC1CCN(c2nc3c(cc2F)c(=O)c(C(=O)O)cn3-c2ccc(F)cc2F)C1` (stereo unspecified) [Tosufloxacin] it was 4.87 min; in that of `COc1cccc(C2(O)CCCCC2CN(C)C)c1` (stereo unspecified) [Tramadol], 2.52 min.
In the case of `COc1ccc(C=CC(=O)Nc2ccccc2C(=O)O)cc1OC` [Tranilast] it was 1.26 min.
As for `O=c1n(CCCN2CCN(c3cccc(Cl)c3)CC2)nc2ccccn12` [Trazodone], the LC retention time is 2.38 min.
In the case of `O=P(O)(O)OCC1OC(OC2OC(CO)C(O)C(O)C2O)C(O)C(O)C1O` (stereo unspecified) [Trehalose-6-phosphate] it was 9.72 min; in that of `O=C(OC1C(Oc2ccccc2COC(=O)C2(O)C=CCCC2=O)OC(CO)C(O)C1O)c1ccccc1` (stereo unspecified) [Tremulacin], 1.51 min; in that of `Cc1nnc2n1-c1ccc(Cl)cc1C(c1ccccc1Cl)=NC2` [Triazolam], 1.3 min.
In the case of `CSc1nc2cc(Oc3cccc(Cl)c3Cl)c(Cl)cc2[nH]1` [Triclabendazole] it was 1.01 min; in that of `CN1CCN(CCCN2c3ccccc3Sc3ccc(C(F)(F)F)cc32)CC1` [Trifluoperazine], 2.15 min; in that of `NC(=O)N1c2ccccc2CC(=O)c2ccccc21` [Trileptal], 1.13 min.
On to `CCC(COC(=O)c1cc(OC)c(OC)c(OC)c1)(c1ccccc1)N(C)C` (stereo unspecified) [Trimebutine], for which the LC retention time turned out to be 1.47 min.
In the case of `CC(CN(C)C)CN1c2ccccc2CCc2ccccc21` (stereo unspecified) [Trimipramine] it was 2.25 min; in that of `CN(C)CCN(Cc1ccccc1)c1ccccn1` [Tripelennamine], 1.98 min.
In the case of `CC(C)C12OC1C1OC13C1(C)CCC4=C(COC4=O)C1CC1OC13C2O` (stereo unspecified) [Triptolide], the LC retention time was found to be 1.02 min.
In the case of `CN1C2CCC1CC(OC(=O)c1c[nH]c3ccccc13)C2` (stereo unspecified) [Tropisetron] it was 3.81 min.
In the case of `COc1cc(C(=O)NC2CCCNC2)cc(OC)c1OC` (stereo unspecified) [Troxipide] it was 5.04 min; in that of `NCCc1c[nH]c2ccccc12` [Tryptamine], 6.92 min; in that of `c1ccc2c3c([nH]c2c1)CNCC3` [Tryptoline], 4.9 min.
For `NC(Cc1c[nH]c2ccccc12)C(=O)O` (stereo unspecified) [Tryptophan], the LC retention time is 6.92 min.
Regarding `NC(=O)C(N)Cc1c[nH]c2ccccc12` (stereo unspecified) [Tryptophanamide], the LC retention time was found to be 5.91 min.
In the case of `NC(Cc1ccc(O)cc1)C(=O)NC(Cc1ccc(O)cc1)C(=O)NC(Cc1ccc(O)cc1)C(=O)O` (stereo not drawn) [Tyr-Tyr-Tyr] it was 7.09 min; in that of `NC(Cc1ccc(O)cc1)C(=O)NC(Cc1ccc(O)cc1)C(=O)O` (stereo unspecified) [Tyr-Tyr], 7.38 min.
In the case of `NCCc1ccc(O)cc1` [Tyramine] it was 5.58 min; in that of `NC(Cc1ccc(O)cc1)C(=O)O` (stereo unspecified) [Tyrosine], 7.61 min; in that of `CN1CCc2cc(Cl)c(O)cc2C(c2ccccc2)C1` (stereo unspecified) [UNII-UGT5535REQ], 2.89 min.
In the case of `O=c1cc[nH]c(=O)[nH]1` [Uracil] it was 2.4 min.
Take `COc1ccccc1N1CCN(CCCNc2cc(=O)n(C)c(=O)n2C)CC1` [Urapidil]: the LC retention time was found to be 4.58 min.
Take `NC(=O)NC(CCC(=O)O)C(=O)O` (stereo unspecified) [Ureidoglutaric acid]: the LC retention time was 7.8 min.
Regarding `O=c1ccn(C2OC(COP(=O)(O)O)C(O)C2O)c(=O)[nH]1` (stereo unspecified) [Uridine 5'-monophosphate], the LC retention time worked out at 8.97 min.
In the case of `O=c1ccn(C2OC(CO)C(O)C2O)c(=O)[nH]1` (stereo unspecified) [Uridine] it was 4.72 min.
In the case of `O=C(O)C=Cc1cnc[nH]1` [Urocanic acid] it was 3.69 min.
In the case of `CC(C)C(N)C(=O)OCCOCn1cnc2c(=O)[nH]c(N)nc21` (stereo unspecified) [Valaciclovir] it was 6.83 min.
As for `Cc1onc(-c2ccccc2)c1-c1ccc(S(N)(=O)=O)cc1` [Valdecoxib], the LC retention time is 1.01 min.
In the case of `CC(C)C(N)C(=O)O` (stereo unspecified) [Valine] it was 7.24 min.
In the case of `CCCCC(=O)N(Cc1ccc(-c2ccccc2-c2nn[nH]n2)cc1)C(C(=O)O)C(C)C` (stereo unspecified) [Valsartan] it was 1.69 min.
